For 33 molecules, EC50 and CC50 results are on record in patent publication US20230091047A1 (priority 2019, published 2023).

The subject of series [1] is HBV (HepG2.117 cell line, inducibly HBV producing). Nature of the series: Anti-HBV activity: intracellular HBV DNA by real-time PCR in HepG2.117 cells after 3 days of treatment. The series is classed as cell-based, hepatitis B virus. Conditions: Hepatitis B virus, HepG2.117, 72 h, HepG2.117 cells, intracellular HBV DNA by real-time PCR, 3 days of treatment, mean value; read-out: EC50 (μM, mean value). The gist of the method:
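First, HBV replication is induced in HepG2.117 cells by doxycycline absence. Next, serially diluted compound is added for 3 days. Finally, intracellular HBV DNA is quantified by HBV-specific real-time PCR.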
For orientation: Quantitative PCR measures a nucleic acid by following its amplification.

A further series in a line: in vitro. To be noted: human, HepG2 or HepG2.117 cells, ATPlite, 3-days incubation (not marked with *), mean value. In kind it is cell-based. The gist of the method:
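Luminescent ATP quantitation served as the viability endpoint following a 3- or 4-day incubation with test compounds.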
A general note: In ATP-based viability assays light output follows the ATP content of the culture.

On to `CNC(=O)c1ccc(-n2c(N3CCOC(C)C3)nc3c(c2=O)C[C@@H](C)N(C(=O)c2ccc(Cl)c(Cl)c2)C3)cc1` (stereo partly drawn) [Compound C470], for which, in series [1], the EC50 – broadly, the concentration giving half of the maximal effect – was over 25 µM. Further, in the series “in vitro”, the CC50 – broadly, the concentration at which the toxic effect on the cells reaches its halfway point – at 3 days is over 50 µM.
In the same order, the values of `CNC(=O)c1ccc(-n2c(NC(C)C)nc3c(c2=O)C[C@@H](C)N(C(=O)c2cc4c(Br)c(C)ccc4[nH]2)C3)cc1` [Compound C471] are 0.25 µM and 21.6 µM.
In the same order, the values of `CNC(=O)c1ccc(-n2c(NC(C)C)nc3c(c2=O)C[C@@H](C)N(C(=O)c2cc(F)c(Cl)cc2Cl)C3)cc1` [Compound C472] are 0.92 µM and over 50 µM.
For the molecule `CNC(=O)c1ccc(-n2c(NC(C)C)nc3c(c2=O)C[C@@H](C)N(C(=O)c2n[nH]c4ccc(Cl)cc24)C3)cc1` [Compound C473], in series [1], the EC50 is over 25 µM. This molecule registered a half-maximal cytotoxic concentration (CC50) at 3 days in the series “in vitro” of over 50 µM.
On to `CNC(=O)c1ccc(-n2c(NC(C)C)nc3c(c2=O)C[C@@H](C)N(C(=O)c2ccc4nnn(C)c4c2)C3)cc1` [Compound C474], for which the EC50 in series [1] is over 25 µM. This molecule also displayed a CC50 at 3 days in the series “in vitro” of over 50 µM.
In the same order, the values of `CNC(=O)c1ccc(-n2c(NC(C)C)nc3c(c2=O)C[C@@H](C)N(C(=O)c2ccc(OC(F)F)c(Cl)c2)C3)cc1` [Compound C475] are 0.07 µM and over 50 µM.
As for `CNC(=O)c1ccc(-n2c(NC(C)C)nc3c(c2=O)C[C@@H](C)N(C(=O)c2cc(F)c(C(F)(F)F)c(F)c2)C3)cc1` [Compound C476], the EC50 in series [1] is 0.12 µM. Further, the CC50 at 3 days in the series “in vitro” was over 50 µM.
In the same order, the values of `CNC(=O)c1ccc(-n2c(NC(C)C)nc3c(c2=O)C[C@@H](C)N(C(=O)c2nn(C)c4ccccc24)C3)cc1` [Compound C477] are 10.2 µM and over 50 µM.
Regarding `CNC(=O)c1ccc(-n2c(NC(C)C)nc3c(c2=O)C[C@@H](C)N(C(=O)c2ccc(F)c(Cl)c2)C3)cc1` [Compound C478], the EC50 in series [1] is 1.28 µM. Moreover, in “in vitro”, the CC50 at 3 days is over 50 µM.
In the same order, the values of `CNC(=O)c1ccc(-n2c(N(C)Cc3cn(C)nn3)nc3c(c2=O)C[C@@H](C)N(C(=O)c2ccc(Cl)c(Cl)c2)C3)cc1` [Compound C479] are 3.81 µM and over 50 µM.
In the same order, the values of `CNC(=O)c1ccc(-n2c(NC3COC(C)(C)C3)nc3c(c2=O)C[C@@H](C)N(C(=O)c2ccc(Cl)c(Cl)c2)C3)cc1` (stereo partly drawn) [Compound C480] are 10.3 µM and over 50 µM.
In the same order, the values of `CNC(=O)c1ccc(-n2c(NC(C)Cn3cnnc3)nc3c(c2=O)C[C@@H](C)N(C(=O)c2ccc(Cl)c(Cl)c2)C3)cc1` (stereo partly drawn) [Compound C481] are over 25 µM and over 50 µM.
As to `CNC(=O)c1ccc(-n2c(NCC(CO)C3CC3)nc3c(c2=O)C[C@@H](C)N(C(=O)c2ccc(Cl)c(Cl)c2)C3)cc1` (stereo partly drawn) [Compound C482], the EC50 in series [1] was found to be 8.34 µM. Moreover, in the series “in vitro”, the CC50 at 3 days was over 50 µM.
As to `CNC(=O)c1ccc(-n2c(NCc3nnc4n3CCC4)nc3c(c2=O)C[C@@H](C)N(C(=O)c2ccc(Cl)c(Cl)c2)C3)cc1` [Compound C483], the EC50 in series [1] was over 12.5 µM. For the same molecule, the CC50 at 3 days in the series “in vitro” was over 25 µM.
In the same order, the values of `CNC(=O)c1ccc(-n2c(NC(C)c3ncn(C)n3)nc3c(c2=O)C[C@@H](C)N(C(=O)c2ccc(Cl)c(Cl)c2)C3)cc1` (stereo partly drawn) [Compound C484] are 3.09 µM and over 50 µM.
In the same order, the values of `CNC(=O)c1ccc(-n2c(NCc3ccccc3-n3ccnc3)nc3c(c2=O)C[C@@H](C)N(C(=O)c2ccc(Cl)c(Cl)c2)C3)cc1` [Compound C485] are 11.9 µM and 24.9 µM.
In the case of `CNC(=O)c1ccc(-n2c(NCc3nc(-c4ccccc4)n[nH]3)nc3c(c2=O)C[C@@H](C)N(C(=O)c2ccc(Cl)c(Cl)c2)C3)cc1` [Compound C486], the EC50 in series [1] amounted to 17.3 µM. Moreover, the CC50 at 3 days in the series “in vitro” is over 50 µM.
In the same order, the values of `CNC(=O)c1ccc(-n2c(N3C[C@@H](C#N)[C@H](c4ccccc4)C3)nc3c(c2=O)C[C@@H](C)N(C(=O)c2ccc(Cl)c(Cl)c2)C3)cc1` [Compound C487] are 0.25 µM and over 50 µM.
On to `CNC(=O)c1ccc(-n2c(NCc3cccc(-c4nccn4C)c3)nc3c(c2=O)C[C@@H](C)N(C(=O)c2ccc(Cl)c(Cl)c2)C3)cc1` [Compound C488], for which the EC50 in series [1] was 7.31 µM. In addition, the CC50 at 3 days in the series “in vitro” worked out at 28.2 µM.
In the same order, the values of `CNC(=O)c1ccc(-n2c(NC(C)c3cn(C)nn3)nc3c(c2=O)C[C@@H](C)N(C(=O)c2ccc(Cl)c(Cl)c2)C3)cc1` (stereo partly drawn) [Compound C489] are over 25 µM and over 50 µM.
`CNC(=O)c1ccc(-n2c(NCc3csc(C4CC4)n3)nc3c(c2=O)C[C@@H](C)N(C(=O)c2ccc(Cl)c(Cl)c2)C3)cc1` [Compound C490]: the EC50 in series [1] came out at 0.89 µM. The molecule also came in with a half-maximal cytotoxic concentration (CC50) at 3 days in the series “in vitro” of 28.4 µM.
Turning to `CNC(=O)c1ccc(-n2c(NC(C)C)nc3c(c2=O)C[C@@H](C)N(C(=O)c2ccc4cncc(Br)c4c2)C3)cc1` [Compound C491], the EC50 in series [1] was determined as 15.3 µM. The CC50 at 3 days in the series “in vitro” is over 50 µM.
Take `CNC(=O)c1ccc(-n2c(NC(C)C)nc3c(c2=O)C[C@@H](C)N(C(=O)c2cc(C)cc(F)c2)C3)cc1` [Compound C492]: the EC50 in series [1] was 1.98 µM. For the same molecule, the CC50 at 3 days in the series “in vitro” is over 50 µM.
In the same order, the values of `CNC(=O)c1ccc(-n2c(NC(C)C)nc3c(c2=O)C[C@@H](C)N(C(=O)c2[nH]nc(C(F)(F)F)c2C)C3)cc1` [Compound C493] are 15.2 µM and over 50 µM.
With `CNC(=O)c1ccc(-n2c(NC(C)C)nc3c(c2=O)C[C@@H](C)N(C(=O)c2ccc4c(c2)CNC4=O)C3)cc1` [Compound C494], in series [1], the EC50 was 2.64 µM. For the same molecule, the CC50 at 3 days in “in vitro” is over 50 µM.
In the case of `CNC(=O)c1ccc(-n2c(NC(C)C)nc3c(c2=O)C[C@@H](C)N(C(=O)c2cc(Br)c4nccn4c2)C3)cc1` [Compound C495], in series [1], the EC50 is over 25 µM. In “in vitro”, the CC50 at 3 days was over 50 µM.
In the same order, the values of `CNC(=O)c1ccc(-n2c(NC(C)C)nc3c(c2=O)C[C@@H](C)N(C(=O)c2cc(C#N)c[nH]2)C3)cc1` [Compound C496] are over 25 µM and over 50 µM.
In the same order, the values of `CNC(=O)c1ccc(-n2c(NC(C)C)nc3c(c2=O)C[C@@H](C)N(C(=O)c2cn4ccccc4n2)C3)cc1` [Compound C497] are 11.8 µM and over 50 µM.
In the same order, the values of `CNC(=O)c1ccc(-n2c(NC(C)C)nc3c(c2=O)C[C@@H](C)N(C(=O)c2cc(F)c(Cl)cc2F)C3)cc1` [Compound C498] are 2.92 µM and over 50 µM.
Regarding `CNC(=O)c1ccc(-n2c(NC(C)C)nc3c(c2=O)C[C@@H](C)N(C(=O)c2ccc(F)c(C)c2)C3)cc1` [Compound C499], in series [1], the concentration giving a half-maximal response (EC50) stood at 1.53 µM. Further, the CC50 at 3 days in “in vitro” was over 50 µM.
For the molecule `CNC(=O)c1ccc(-n2c(NC(C)C)nc3c(c2=O)C[C@@H](C)N(C(=O)c2ccc(C(F)F)c(F)c2)C3)cc1` [Compound C500], in series [1], the EC50 turned out to be 0.59 µM. Moreover, the CC50 at 3 days in the series “in vitro” was over 50 µM.
Turning to `CNC(=O)c1ccc(-n2c(NC(C)C)nc3c(c2=O)C[C@@H](C)N(C(=O)c2cc(C)c(F)c(C)c2)C3)cc1` [Compound C501], the 50% effective concentration (EC50) in series [1] came to 0.36 µM. Further, in “in vitro”, the CC50 at 3 days was over 50 µM.
In the same order, the values of `CNC(=O)c1ccc(-n2c(NC(C)C)nc3c(c2=O)C[C@@H](C)N(C(=O)c2cc(F)cc(F)c2)C3)cc1` [Compound C502] are 8.95 µM and over 50 µM.
